Source: ChEMBL document CHEMBL1671744 (Antimicrob Agents Chemother, 2010)
In brackets after ≈: the same amount, converted by molar mass. Where a SMILES comes first, the peptide text is derived from it. [ ]: non-standard residue; d: D form. The star is where a group is joined. Nphe = O=C(O)CNCc1ccccc1; OBn = c1ccc(CO*)cc1

Tests used:
Staphylococcus aureus = experiment: Antimicrobial activity against Staphylococcus aureus; type: functional
[1] = erythrocyte
Escherichia coli = experiment: Antimicrobial activity against Escherichia coli; type: functional

Row | MIC (Staphylococcus aureus) | MHC [1] | MIC (Escherichia coli) | Compound
1 | 1 µM (≈ 2.25 µg/mL) | > 200 µM | 2 µM (≈ 4.49 µg/mL) | CC[C@H](C)[C@H](NC(=O)[C@H](CCCCN)NC(=O)[C@@H](NC(=O)[C@H](CCC(N)=O)NC(=O)[C@@H](N)CCCNC(=N)N)[C@@H](C)CC)C(=O)N[C@@H](Cc1c[nH]c2ccccc12)C(=O)N[C@@H](Cc1ccccc1)C(=O)N[C@@H](CCC(N)=O)C(=O)N[C@@H](CC(N)=O)C(=O)N[C@@H](CCCNC(=N)N)C(=O)N[C@@H](CCCNC(=N)N)C(=O)N[C@@H](CCSC)C(=O)N[C@@H](CCCCN)C(=O)N[C@@H](Cc1c[nH]c2ccccc12)C(=O)N[C@@H](CCCCN)C(=O)N[C@@H](CCCCN)C(N)=O [PENETRATIN]
2 |  |  | 2.1 µM (≈ 6.22 µg/mL) | CC[C@H](C)[C@H](NC(=O)[C@H](C)NC(=O)[C@H](CCCCN)NC(=O)[C@H](CC(C)C)NC(=O)[C@H](C)NC(=O)[C@@H](NC(=O)[C@H](Cc1cnc[nH]1)NC(=O)[C@H](CC(C)C)NC(=O)[C@@H](NC(=O)[C@@H](NC(=O)[C@H](CCCCN)NC(=O)[C@@H](NC(=O)[C@H](C)NC(=O)[C@H](CO)NC(=O)[C@H](CCCCN)NC(=O)[C@H](Cc1ccccc1)NC(=O)[C@@H](NC(=O)[C@H](CCCCN)NC(=O)[C@H](CC(C)C)NC(=O)[C@H](Cc1ccccc1)NC(=O)[C@H](CO)NC(=O)[C@H](CCCCN)NC(=O)[C@H](Cc1c[nH]c2ccccc12)NC(=O)[C@H](CCCCN)NC(C)=O)[C@@H](C)O)C(C)C)[C@@H](C)O)C(C)C)[C@@H](C)O)C(=O)N[C@@H](CO)C(=O)N[C@@H](CO)C(N)=O (Ac-KWKSFLKTFKSAVKTVLHTALKAISS-NH2)
3 |  | > 88.6 µM | 0.89 µM (≈ 2.57 µg/mL) | CC[C@H](C)[C@H](NC(=O)[C@H](CCCCN)NC(=O)[C@H](CC(C)C)NC(=O)[C@H](C)NC(=O)[C@@H](NC(=O)[C@H](Cc1cnc[nH]1)NC(=O)[C@H](CC(C)C)NC(=O)[C@@H](NC(=O)[C@@H](NC(=O)[C@H](CCCCN)NC(=O)[C@@H](NC(=O)[C@H](C)NC(=O)[C@H](CO)NC(=O)[C@H](CCCCN)NC(=O)[C@H](Cc1ccccc1)NC(=O)[C@@H](NC(=O)[C@H](CCCCN)NC(=O)[C@H](CC(C)C)NC(=O)[C@H](Cc1ccccc1)NC(=O)[C@H](CO)NC(=O)[C@H](CCCCN)NC(=O)[C@H](Cc1c[nH]c2ccccc12)NC(=O)[C@H](CCCCN)NC(C)=O)[C@@H](C)O)C(C)C)[C@@H](C)O)C(C)C)[C@@H](C)O)C(=O)N[C@@H](CO)C(=O)N[C@@H](CO)C(N)=O (Ac-KWKSFLKTFKSAVKTVLHTALKISS-NH2)
4 | 9 µM (≈ 5.73 µg/mL) |  | 140 µM (≈ 89.1 µg/mL) | NC(N)=NCCC[C@H](NC(=O)[C@@H](N)Cc1c[nH]c2ccccc12)C(=O)N[C@@H](Cc1c[nH]c2ccccc12)C(=O)OCc1ccccc1 (H-Trp-Arg-Trp-OBn)
5 |  |  | 1.1 µM (≈ 3.26 µg/mL) | CC[C@H](C)[C@H](NC(=O)[C@H](C)NC(=O)[C@H](CCCCN)NC(=O)[C@H](CC(C)C)NC(=O)[C@H](C)NC(=O)[C@@H](NC(=O)[C@H](Cc1cnc[nH]1)NC(=O)[C@H](CC(C)C)NC(=O)[C@@H](NC(=O)[C@@H](NC(=O)[C@H](CCCCN)NC(=O)[C@H](NC(=O)[C@H](C)NC(=O)[C@H](CO)NC(=O)[C@H](CCCCN)NC(=O)[C@H](Cc1ccccc1)NC(=O)[C@@H](NC(=O)[C@H](CCCCN)NC(=O)[C@H](CC(C)C)NC(=O)[C@H](Cc1ccccc1)NC(=O)[C@H](CO)NC(=O)[C@H](CCCCN)NC(=O)[C@H](Cc1c[nH]c2ccccc12)NC(=O)[C@H](CCCCN)NC(C)=O)[C@@H](C)O)C(C)C)[C@@H](C)O)C(C)C)[C@@H](C)O)C(=O)N[C@@H](CO)C(=O)N[C@@H](CO)C(N)=O (Ac-KWKSFLKTFKSA[dV]KTVLHTALKAISS-NH2)
6 |  | 5.2 µM |  | CC[C@H](C)[C@H](NC(=O)[C@H](C)NC(=O)[C@H](CCCCN)NC(=O)[C@H](CC(C)C)NC(=O)[C@H](C)NC(=O)[C@@H](NC(=O)[C@H](Cc1c[nH]cn1)NC(=O)[C@H](CC(C)C)NC(=O)[C@@H](NC(=O)[C@@H](NC(=O)[C@H](CCCCN)NC(=O)[C@@H](NC(=O)[C@H](C)NC(=O)[C@H](CO)NC(=O)[C@H](CCCCN)NC(=O)[C@H](Cc1ccccc1)NC(=O)[C@@H](NC(=O)[C@H](CCCCN)NC(=O)[C@H](CC(C)C)NC(=O)[C@H](Cc1ccccc1)NC(=O)[C@H](CO)NC(=O)[C@H](CCCCN)NC(=O)[C@H](Cc1c[nH]c2ccccc12)NC(=O)[C@H](CCCCN)NC(C)=O)[C@@H](C)O)C(C)C)[C@@H](C)O)C(C)C)[C@@H](C)O)C(=O)N[C@@H](CO)C(=O)N[C@@H](CO)C(N)=O (Ac-KWKSFLKTFKSAVKTVLHTALKAISS-NH2)
7 |  | > 500 µg/mL |  | N=C(N)NCCC[C@H](NC(=O)[C@@H](N)Cc1c[nH]c2ccccc12)C(=O)N[C@@H](Cc1c[nH]c2ccccc12)C(N)=O (H-Trp-Arg-Trp-NH2)
8 |  | < 2.8 µM | 2.8 µM (≈ 8.53 µg/mL) | CC[C@H](C)[C@H](NC(=O)[C@H](C)NC(=O)[C@H](CCCCN)NC(=O)[C@H](CC(C)C)NC(=O)[C@H](C)NC(=O)[C@H](CCCCN)NC(=O)[C@H](Cc1cnc[nH]1)NC(=O)[C@H](CC(C)C)NC(=O)[C@@H](NC(=O)[C@H](CCCCN)NC(=O)[C@H](CCCCN)NC(=O)[C@H](CCCCN)NC(=O)[C@H](C)NC(=O)[C@H](CO)NC(=O)[C@H](CCCCN)NC(=O)[C@H](Cc1ccccc1)NC(=O)[C@@H](NC(=O)[C@H](CCCCN)NC(=O)[C@H](CC(C)C)NC(=O)[C@H](Cc1ccccc1)NC(=O)[C@H](CO)NC(=O)[C@H](CCCCN)NC(=O)[C@H](Cc1c[nH]c2ccccc12)NC(=O)[C@H](CCCCN)NC(C)=O)[C@@H](C)O)C(C)C)C(=O)N[C@@H](CO)C(=O)N[C@@H](CO)C(N)=O (Ac-KWKSFLKTFKSAKKKVLHKALKAISS-NH2)
9 |  | > 500 µg/mL |  | N=C(N)NCCC[C@H](NC(=O)[C@@H](N)Cc1c[nH]c2ccccc12)C(=O)N[C@@H](Cc1c[nH]c2ccccc12)C(=O)OCc1ccccc1 (H-Trp-Arg-Trp-OBn)
10 | 218 µM (≈ 119 µg/mL) |  | > 436 µM | NC(=O)[C@H](Cc1c[nH]c2ccccc12)NC(=O)[C@H](CCCN=C(N)N)NC(=O)[C@@H](N)Cc1c[nH]c2ccccc12 (H-Trp-Arg-Trp-NH2)
11 |  | 22.2 µM |  | CC[C@H](C)[C@H](NC(=O)[C@H](C)NC(=O)[C@H](CCCCN)NC(=O)[C@H](CC(C)C)NC(=O)[C@H](C)NC(=O)[C@@H](NC(=O)[C@H](Cc1c[nH]cn1)NC(=O)[C@H](CC(C)C)NC(=O)[C@@H](NC(=O)[C@@H](NC(=O)[C@H](CCCCN)NC(=O)[C@H](NC(=O)[C@H](C)NC(=O)[C@H](CO)NC(=O)[C@H](CCCCN)NC(=O)[C@H](Cc1ccccc1)NC(=O)[C@@H](NC(=O)[C@H](CCCCN)NC(=O)[C@H](CC(C)C)NC(=O)[C@H](Cc1ccccc1)NC(=O)[C@H](CO)NC(=O)[C@H](CCCCN)NC(=O)[C@H](Cc1c[nH]c2ccccc12)NC(=O)[C@H](CCCCN)NC(C)=O)[C@@H](C)O)C(C)C)[C@@H](C)O)C(C)C)[C@@H](C)O)C(=O)N[C@@H](CO)C(=O)N[C@@H](CO)C(N)=O (Ac-KWKSFLKTFKSA[dV]KTVLHTALKAISS-NH2)
12 | 1 µM (≈ 4.6 µg/mL) | 25 µM | 2 µM (≈ 9.21 µg/mL) | CC[C@H](C)[C@H](NC(=O)[C@H](CCCCN)NC(=O)[C@@H](NC(=O)[C@H](CCC(N)=O)NC(=O)[C@@H](N)CCCNC(=N)N)[C@@H](C)CC)C(=O)N[C@@H](Cc1c[nH]c2ccccc12)C(=O)N[C@@H](Cc1ccccc1)C(=O)N[C@@H](CCC(N)=O)C(=O)N[C@@H](CC(N)=O)C(=O)N[C@@H](CCCNC(=N)N)C(=O)N[C@@H](CCCNC(=N)N)C(=O)N[C@@H](CCSC)C(=O)N[C@@H](CCCCN)C(=O)N[C@@H](Cc1c[nH]c2ccccc12)C(=O)N[C@@H](CCCCN)C(=O)N[C@@H](CCCCN)C(=O)NCCCC[C@H](NC(=O)[C@H](CCCCN)NC(=O)[C@H](CCCCN)NC(=O)[C@H](Cc1c[nH]c2ccccc12)NC(=O)[C@H](CCCCN)NC(=O)[C@H](CCSC)NC(=O)[C@H](CCCNC(=N)N)NC(=O)[C@H](CCCNC(=N)N)NC(=O)[C@H](CC(N)=O)NC(=O)[C@H](CCC(N)=O)NC(=O)[C@H](Cc1ccccc1)NC(=O)[C@H](Cc1c[nH]c2ccccc12)NC(=O)[C@@H](NC(=O)[C@H](CCCCN)NC(=O)[C@@H](NC(=O)[C@H](CCC(N)=O)NC(=O)[C@@H](N)CCCNC(=N)N)[C@@H](C)CC)[C@@H](C)CC)C(N)=O

Row | Compound | MIC (Staphylococcus aureus) | MHC [1] | MIC (Escherichia coli)
13 | CC[C@H](C)[C@H](NC(=O)CN)C(=O)NCC(=O)N[C@@H](C)C(=O)N[C@H](C(=O)N[C@@H](CC(C)C)C(=O)N[C@@H](CCCCN)C(=O)N[C@H](C(=O)N[C@@H](CC(C)C)C(=O)N[C@H](C(=O)N[C@H](C(=O)NCC(=O)N[C@@H](CC(C)C)C(=O)N1CCC[C@H]1C(=O)N[C@@H](C)C(=O)N[C@@H](CC(C)C)C(=O)N[C@H](C(=O)N[C@@H](CO)C(=O)N[C@@H](Cc1c[nH]c2ccccc12)C(=O)N[C@H](C(=O)N[C@@H](CCCCN)C(=O)N[C@@H](CCCNC(=N)N)C(=O)N[C@@H](CCCCN)C(=O)N[C@@H](CCCNC(=N)N)C(=O)N[C@@H](CCC(N)=O)C(=O)N[C@@H](CCC(N)=O)C(N)=O)[C@@H](C)CC)[C@@H](C)CC)[C@@H](C)O)[C@@H](C)O)C(C)C)C(C)C [MELITTIN] |  | 0.78 µM | 
14 | CC[C@@H](C)[C@@H](NC(=O)[C@@H](C)NC(=O)[C@@H](CCCCN)NC(=O)[C@@H](CC(C)C)NC(=O)[C@@H](C)NC(=O)[C@H](NC(=O)[C@@H](Cc1c[nH]cn1)NC(=O)[C@@H](CC(C)C)NC(=O)[C@H](NC(=O)[C@H](NC(=O)[C@@H](CCCCN)NC(=O)[C@@H](CCCCN)NC(=O)[C@@H](C)NC(=O)[C@@H](CO)NC(=O)[C@@H](CCCCN)NC(=O)[C@@H](Cc1ccccc1)NC(=O)[C@H](NC(=O)[C@@H](CCCCN)NC(=O)[C@@H](CC(C)C)NC(=O)[C@@H](Cc1ccccc1)NC(=O)[C@@H](CO)NC(=O)[C@@H](CCCCN)NC(=O)[C@@H](Cc1c[nH]c2ccccc12)NC(=O)[C@@H](CCCCN)NC(C)=O)[C@H](C)O)[C@H](C)O)C(C)C)[C@H](C)O)C(=O)N[C@H](CO)C(=O)N[C@H](CO)C(N)=O |  | > 88.6 µM | 
15 | CC[C@H](C)[C@H](NC(=O)CN)C(=O)NCC(=O)N[C@@H](C)C(=O)N[C@H](C(=O)N(CC(=O)N[C@@H](CCCCN)C(=O)N[C@H](C(=O)N[C@@H](CC(C)C)C(=O)N[C@H](C(=O)N[C@H](C(=O)NCC(=O)N(CC(=O)N1CCC[C@H]1C(=O)N[C@@H](C)C(=O)N[C@@H](CC(C)C)C(=O)N[C@H](C(=O)N[C@@H](CO)C(=O)N[C@@H](Cc1c[nH]c2ccccc12)C(=O)N(CC(=O)N[C@@H](CCCCN)C(=O)N[C@@H](CCCNC(=N)N)C(=O)N[C@@H](CCCCN)C(=O)N[C@@H](CCCNC(=N)N)C(=O)N[C@@H](CCC(N)=O)C(=O)N[C@@H](CCC(N)=O)C(=O)O)Cc1ccccc1)[C@@H](C)CC)Cc1ccccc1)[C@@H](C)O)[C@@H](C)O)C(C)C)Cc1ccccc1)C(C)C [MELITTIN PEPTOID F] (H-GIGAV[Nphe]KVLTTG[Nphe]PALISW[Nphe]KRKRQQ-OH) | 2 µM (≈ 5.9 µg/mL) | > 100 µM | 4 µM (≈ 11.8 µg/mL)
